Measured values published in US7323465B2, “Alkansulfonamides as endothelin antagonists” (Actelion Pharmaceuticals Ltd., priority 2002, dated 2008).

Assays:
[1] = target: T1, human recombinant ETA receptors (Homo sapiens, UniProt P25101); test: Inhibition of [125I]ET-1 binding to membranes from CHO cells carrying human ETA receptors
T1 construct: expressed in transfected cells; host or cells: CHO cells (microsomal membranes)
T1 sequence (P25101 21-427): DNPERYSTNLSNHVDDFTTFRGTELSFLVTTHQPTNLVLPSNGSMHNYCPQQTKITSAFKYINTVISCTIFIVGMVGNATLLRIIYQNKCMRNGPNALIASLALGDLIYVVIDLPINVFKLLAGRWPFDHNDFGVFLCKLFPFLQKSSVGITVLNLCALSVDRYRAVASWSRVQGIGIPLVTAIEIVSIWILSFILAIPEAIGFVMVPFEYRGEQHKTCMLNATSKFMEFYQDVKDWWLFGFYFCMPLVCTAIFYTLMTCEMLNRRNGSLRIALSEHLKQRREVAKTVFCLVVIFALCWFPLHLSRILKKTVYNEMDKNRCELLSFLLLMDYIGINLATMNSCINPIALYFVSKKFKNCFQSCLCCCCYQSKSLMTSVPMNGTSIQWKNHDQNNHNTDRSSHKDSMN
Description: (§1) 1) Inhibition of Endothelin Binding to Membranes from CHO Cells Carrying Human ET Receptors:
(§2) For competition binding studies, membranes of CHO cells expressing human recombinant ETA or ETB receptors were used.
(§3) The assay was performed in 200 uL 50 mM Tris/HCl buffer, pH 7.4, including 25 mM MnCl2, 1 mM EDTA and 0.5% (w/v) BSA in polypropylene microtiter plates. […] After 2 h, the membranes were filtered on filterplates containing GF/C filters (Unifilterplates from Canberra Packard S.A. Zürich, Switzerland). To each well, 50 uL of scintillation cocktail was added (MicroScint 20, Canberra Packard S.A. Zürich, Switzerland) and the filter plates counted in a microplate counter (TopCount, Canberra Packard S.A. Zürich, Switzerland).
(§4) All the test compounds were dissolved, diluted and added in DMSO.

[2] = target: T2, human recombinant ETB receptors (Homo sapiens, UniProt P24530); test: Inhibition of [125I]ET-1 binding to membranes from CHO cells carrying human ETB receptors
T2 construct: expressed in transfected cells; host or cells: CHO cells (microsomal membranes)
T2 sequence (P24530 27-442): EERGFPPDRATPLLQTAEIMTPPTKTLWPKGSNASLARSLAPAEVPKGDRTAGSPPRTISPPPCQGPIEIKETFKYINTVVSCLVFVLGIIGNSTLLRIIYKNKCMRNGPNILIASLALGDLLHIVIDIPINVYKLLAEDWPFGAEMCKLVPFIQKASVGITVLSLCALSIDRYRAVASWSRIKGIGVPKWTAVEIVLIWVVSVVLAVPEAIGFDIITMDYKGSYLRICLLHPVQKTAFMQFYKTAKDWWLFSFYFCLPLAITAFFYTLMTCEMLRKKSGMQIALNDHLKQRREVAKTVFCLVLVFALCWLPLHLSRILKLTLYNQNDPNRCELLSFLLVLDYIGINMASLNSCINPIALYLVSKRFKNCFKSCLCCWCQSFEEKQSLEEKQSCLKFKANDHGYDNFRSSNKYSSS
Description: as §1, §2, §3, §4
Also: 2.5% DMSO.

IC50 [1] [nM] | IC50 [2] [nM] | SMILES
0.66 | 838 | CCS(=O)(=O)Nc1ncnc(OCCOc2ncc(Br)cn2)c1-c1ccc(Br)cc1 [Example 58]
6.8 | > 1000 | CCS(=O)(=O)Nc1ncnc(OCCOc2ncc(OC)cn2)c1-c1ccc(Br)cc1 [Example 59]
0.8 | 427 | CCS(=O)(=O)Nc1ncnc(OCCOc2ncc(SC)cn2)c1-c1ccc(Br)cc1 [Example 60]
1.1 | 271 | CCS(=O)(=O)Nc1ncnc(OCCOc2ncc(S(C)(=O)=O)cn2)c1-c1ccc(Br)cc1 [Example 61]
5.5 | > 1000 | CCS(=O)(=O)Nc1nc(C2CC2)nc(OCCOc2ncc(Br)cn2)c1-c1ccc(C)cc1 [Example 62]
25 | > 1000 | CCS(=O)(=O)Nc1nc(C2CC2)nc(OCCOc2ncc(OC)cn2)c1-c1ccc(C)cc1 [Example 63]
3.5 | > 1000 | CCS(=O)(=O)Nc1nc(C2CC2)nc(OCCOc2ncc(SC)cn2)c1-c1ccc(C)cc1 [Example 64]
1.4 | > 1000 | CCS(=O)(=O)Nc1nc(C2CC2)nc(OCCOc2ncc(S(C)(=O)=O)cn2)c1-c1ccc(C)cc1 [Example 65]
1.5 | > 1000 | CCS(=O)(=O)Nc1ncnc(OCCOc2ncc(Br)cn2)c1-c1ccc(Cl)cc1 [Example 66]
13 | > 1000 | CCS(=O)(=O)Nc1ncnc(OCCOc2ncc(OC)cn2)c1-c1ccc(Cl)cc1 [Example 67]
1.2 | 563 | CCS(=O)(=O)Nc1ncnc(OCCOc2ncc(SC)cn2)c1-c1ccc(Cl)cc1 [Example 68]
1.2 | 314 | CCS(=O)(=O)Nc1ncnc(OCCOc2ncc(S(C)(=O)=O)cn2)c1-c1ccc(Cl)cc1 [Example 69]
3.6 | > 1000 | CCCS(=O)(=O)Nc1ncnc(OCCOc2ncc(OC)cn2)c1-c1ccc(Br)cc1 [Example 71]
0.6 | 936 | CCCS(=O)(=O)Nc1ncnc(OCCOc2ncc(SC)cn2)c1-c1ccc(Br)cc1 [Example 72]
0.59 | 277 | CCCS(=O)(=O)Nc1ncnc(OCCOc2ncc(S(C)(=O)=O)cn2)c1-c1ccc(Br)cc1 [Example 73]
0.63 | > 1000 | CCCCS(=O)(=O)Nc1ncnc(OCCOc2ncc(Br)cn2)c1-c1ccc(C)cc1 [Example 74]
3.5 | > 1000 | CCCCS(=O)(=O)Nc1ncnc(OCCOc2ncc(OC)cn2)c1-c1ccc(C)cc1 [Example 75]
1.1 | > 1000 | CCCCS(=O)(=O)Nc1ncnc(OCCOc2ncc(SC)cn2)c1-c1ccc(C)cc1 [Example 76]
2.3 | > 1000 | CCCCS(=O)(=O)Nc1nc(C2CC2)nc(OCCOc2ncc(Br)cn2)c1-c1ccc(C)cc1 [Example 77]
10 | > 1000 | CCCCS(=O)(=O)Nc1nc(C2CC2)nc(OCCOc2ncc(OC)cn2)c1-c1ccc(C)cc1 [Example 78]
2.1 | > 1000 | CCCCS(=O)(=O)Nc1nc(C2CC2)nc(OCCOc2ncc(SC)cn2)c1-c1ccc(C)cc1 [Example 79]
1.5 | > 1000 | CCCCS(=O)(=O)Nc1nc(C2CC2)nc(OCCOc2ncc(S(C)(=O)=O)cn2)c1-c1ccc(C)cc1 [Example 80]
1.27 | > 1000 | CCCCS(=O)(=O)Nc1ncnc(OCCOc2ncc(OC)cn2)c1-c1ccc(Br)cc1 [Example 82]
0.49 | 640 | CCCCS(=O)(=O)Nc1ncnc(OCCOc2ncc(SC)cn2)c1-c1ccc(Br)cc1 [Example 83]
0.56 | 118 | CCCCS(=O)(=O)Nc1ncnc(OCCOc2ncc(S(C)(=O)=O)cn2)c1-c1ccc(Br)cc1 [Example 84]
